Results as given in ChEMBL document CHEMBL5131493, “Synthesis and evaluation of RNase L-binding 2-aminothiophenes as anticancer agents” (Bioorg Med Chem, 2022).
Activity calls are given as the source filed them. The calls are words filed in the database; no cut-off is given here.

How the values were obtained:
Homo sapiens = organism: Homo sapiens; test: Binding affinity to RNase L (unknown origin) expressed in Escherichia coli BL21 (DE3) assessed as thermal stability by measuring melting temperature at 60 uM incubated for 50 mins by NanoDSF analysis
JAR [1] = test: Antiproliferative activity against human JAR cells assessed as cell growth inhibition at 10 uM incubated for 72 hrs by MTT assay relative to control; assay type: functional
JAR [2] = test: Antiproliferative activity against human JAR cells assessed as cell growth inhibition incubated for 72 hrs by MTT assay; assay type: functional, cell-based
K562 = test: Antiproliferative activity against human K562 cells assessed as cell growth inhibition incubated for 72 hrs by MTT assay; assay type: functional, cell-based; settings: K562, 72 h
A549 = test: Antiproliferative activity against human A549 cells assessed as cell growth inhibition incubated for 72 hrs by MTT assay; assay type: functional, cell-based; settings: A549, 72 h
MCF7 = test: Antiproliferative activity against human MCF7 cells assessed as cell growth inhibition incubated for 72 hrs by MTT assay; assay type: functional, cell-based; settings: MCF7, 72 h
JAR [3] = test: Induction of apoptosis in human JAR cells assessed as fold increase in cleaved PARP level at 10 uM incubated for 24 hrs by Western blot analysis; assay type: functional
JAR [4] = test: Induction of apoptosis in human JAR cells assessed as fold increase in PARP cleavage at 5 to10 uM incubated for 24 hrs by Western blot analysis; assay type: functional; settings: dose 10 µM
JAR [5] = test: Induction of apoptosis in human JAR cells assessed as live cells at 5 uM measured after 72 hrs by Annexin V-FITC/PI staining based flow cytometry (reference value: 79.87%); assay type: functional
JAR [6] = test: Induction of apoptosis in human JAR cells assessed as early apoptotic cells at 5 uM measured after 72 hrs by Annexin V-FITC/PI staining based flow cytometry (reference value: 8.24%); assay type: functional
JAR [7] = test: Induction of apoptosis in human JAR cells assessed as late apoptotic cells at 5 uM measured after 72 hrs by Annexin V-FITC/PI staining based flow cytometry (reference value: 11.67%); assay type: functional
JAR [8] = test: Induction of apoptosis in human JAR cells assessed as necrotic cells at 5 uM measured after 72 hrs by Annexin V-FITC/PI staining based flow cytometry (reference value: 0.22%); assay type: functional
JAR [9] = test: Induction of apoptosis in human JAR cells assessed as live cells at 10 uM measured after 72 hrs by Annexin V-FITC/PI staining based flow cytometry (reference value: 79.87%); assay type: functional
JAR [10] = test: Induction of apoptosis in human JAR cells assessed as early apoptotic cells at 10 uM measured after 72 hrs by Annexin V-FITC/PI staining based flow cytometry (reference value: 8.24%); assay type: functional
JAR [11] = test: Induction of apoptosis in human JAR cells assessed as late apoptotic cells at 10 uM measured after 72 hrs by Annexin V-FITC/PI staining based flow cytometry (reference value: 11.67%); assay type: functional
JAR [12] = test: Induction of apoptosis in human JAR cells assessed as necrotic cells at 10 uM measured after 72 hrs by Annexin V-FITC/PI staining based flow cytometry (reference value: 0.22%); assay type: functional
JAR [13] = test: Inhibition of cell migration in human JAR cells at 5 uM measured after 72 hrs by scratch wound healing assay relative to control; assay type: functional
JAR [14] = test: Inhibition of colony formation in human JAR cells measured after 3 days by Giemsa staining based microscopic analysis; assay type: functional, cell-based; settings: time 3.0 day, DDE = dose-dependent effect
JAR [15] = test: Inhibition of colony formation in human JAR cells assessed as cell reproductive death at upto 5 uM measured after 3 days by Giemsa staining based microscopic analysis; assay type: functional; settings: time 3.0 day

CCOC(=O)C1=C(Nc2ccccc2)S/C(=C\c2ccc(F)c(C#N)c2)C1=O
ΔTm (Homo sapiens): 0.8 °C
inhibition at 10 µM (JAR [1]): 99.9%
IC50 (JAR [2]): 1500 nM
IC50 (K562): 1600 nM
IC50 (A549): 8 µM
IC50 (MCF7): 5.2 µM
fold change (FC) (JAR [3]): >2
fold change (FC) (JAR [4]): >2
Activity (JAR [5]): 47.62%
Activity (JAR [6]): 23.02%
Activity (JAR [7]): 27.47%
Activity (JAR [8]): 1.88%
Activity (JAR [9]): 32.48%
Activity (JAR [10]): 5.06%
Activity (JAR [11]): 55.7%
Activity (JAR [12]): 6.8%
inhibition at 5 µM (JAR [13]): 85%
inhibition (JAR [14]): Dde
inhibition (JAR [15]): Active
